Literature values as cited in US20220267753A1, “RATIONAL THERAPEUTIC TARGETING OF ONCOGENIC IMMUNE SIGNALING STATES IN MYELOID MALIGNANCIES VIA THE UBIQUITIN CONJUGATING ENZYME UBE2N” (CHILDREN'S HOSPITAL MEDICAL CENTER, priority 2019, published 2022).

Molecular target: T1, UBE2N (Homo sapiens, UniProt P61088)
T1 sequence (P61088 1-152): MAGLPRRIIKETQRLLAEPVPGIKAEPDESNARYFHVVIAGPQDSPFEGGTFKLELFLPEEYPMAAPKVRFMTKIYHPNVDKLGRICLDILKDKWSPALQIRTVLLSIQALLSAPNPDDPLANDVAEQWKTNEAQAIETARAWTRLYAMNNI
Conditions: cited from earlier work; for inhibition of UBE2N by covalent reaction with Cys-87: reference [16]; for selectivity among cysteine-containing ubiquitin enzymes: references [23-25]

| Structure (SMILES) | inhibition of UBE2N by covalent reaction with Cys-87 | selectivity among cysteine-containing ubiquitin enzymes |
| --- | --- | --- |
| Cc1ccc(S(=O)(=O)/C=C/C#N)cc1 [BAY11-7082] | irreversible inhibition of UBE2N | non-selective inhibitors |
| Cc1ccc(S(=O)(=O)c2ccc([N+](=O)[O-])o2)cc1 [NSC697923, 2-(4-methylphenyl)sulfonyl-5-nitrofuran] | irreversible inhibition of UBE2N | non-selective inhibitors |
